# Laboratory results reported in patent US11779628B2, “Use of cell-permeable peptide inhibitors of the JNK signal transduction pathway for the treatment of various diseases” (Xigen Inflammation Ltd., priority 2014, dated 2023).
# Read-outs that look alike come from different tables or passages of the source.
# Assays:
# [1] = human, in vivo, 1 h
# Procedure: The quantification (plasma) of XG-102 in plasma was evaluated in a subset of 32 patients located in one site. A venous blood sample (2 ml) was obtained using a Li-Heparin tube 60 minutes after sub-conjunctival administration of study treatment. The exact time when the sample was performed was entered in the space provided on the e-CRF. The blood sample was centrifuged for 10 minutes at 2,500 RPM at room temperature. After centrifugation, using a pipette, the plasma was transferred to two 1.5 ml cryotubes. The cryotubes were then placed in a freezer at −80° C. and were then subsequently sent in dry ice with a temperature data logger to the central laboratory responsible for the analysis. Upon receipt at the central laboratory, the samples were stored at −80° C. until analyzed.
# [2] = tested on: Sprague-Dawley albino rats, light-induced photoreceptor cell death; format: in vivo; conditions: Day 23
# Text: The aim of this study was to investigate the dose effect of XG-102 on light-induced photoreceptor cell death.
# 50 male Rat (Sprague-Dawley (albinos rat); approximately 8 weeks; 200-250 g (on ordering)) have been used. Rats are most commonly used in this experimental model. Animals were examined before study, and particular attention was paid to the eyes. Animals were held in observation for 2 weeks following their arrival. Animals were observed daily for signs of illness. Only healthy animals with no ocular abnormalities were accepted for use in experiments. Animals were housed individually in standard cages (420×270×190 mm)^ii. All animals were housed under identical environmental conditions. The temperature was held at 22±2° C. and the relative humidity at 55±10%. Rooms were continuously ventilated (15 times per hour). A cycle of 12 hours light (200-300 lx) and 12 hours darkness was automatically controlled. These parameters were continuously controlled and recorded. Throughout the study, animals had free access to food and water. They were fed a standard dry pellet diet. Tap water was available ad libitum from plastic bottles.
# Forty-eight (48) rats were randomly divided into six (6) groups of eight (8) animals each. Test item (XG-102: 30 mg/ml, 3 mg/ml, and 0.3 mg/ml) and vehicle (0.9% NaCl) were administered by intravitreal injection in right eyes the day before induction. The reference (Phenyl-N-test-Butylnitrone (PBN) (50 mg/kg)) and vehicle were intraperitoneally injected 30 min before induction then, 3 times during 12 hours of light exposition, then once after induction. Animals were placed in constant light (7000 lux) for 24 h. Electroretinograms (ERG) were recorded before light treatment and on days 9, 16 and 23 after induction. Eyes were then taken for histology and outer nuclear layer (ONL) thickness assessment. The table below summarizes the allocation of animals in treatment groups:
# For the intravitreal injection animals were anesthetized by intramuscular injection of a mixture of xylazine/ketamine. Test item (5 μl) and vehicle (5 μl) were injected in the right eye. The injection was performed under an operating microscope in the supratemporal area at pars plana using a 33G-needle mounted on a 50 μl Hamilton. The filled syringe was mounted into the UltraMicroPump III to achieve accurate injection in microliter range. Reference and vehicle were injected intraperitoneally at a dose volume of 2.5 ml/kg using a 30G-needle mounted on a 1 ml-syringe.
# Light Exposure: The rats that had been dark-adapted overnight were exposed for 24 hours to a continuous white fluorescent light (7000 Ix) in clear plastic cages. Each cage contained one rat. After exposure, the rats returned to rearing cyclic light conditions.
# ERG was recorded before induction and 7, 14 and 21 days after cessation of exposure (Days 9, 16 and 23) on right eyes of dark-adapted and anesthetized animals. The latency times (for a- and b-wave) and the a-wave and b-wave amplitudes were measured for each ERG; the latency times were expressed as millisecond and the a-wave and b-wave as a percentage of the baseline value obtained before light exposure. 15 min before measurement 10 μl Mydriaticum® (0.5% tropicamide) were instilled for pupillary dilatation.
# ERG Parameters: • Color: white maximum. • Maximum intensity: 2.6 cd·s/m^2 (0 dB); Duration 0.24 ms; number of flash: 1. • Filter: 50 Hz. • Impedence Threshold: 90 kΩ.
# Measurement of the ONL Thickness: After ERG testing, animal was euthanized by an overdose of pentobarbital and the right eyes were enucleated, fixed and embedded in paraffin. Sections (5 μm thick) were performed along the vertical meridian and stained with Trichrome-Masson. The vertical meridian included the optic nerve.
# Group mean values and standard deviation were calculated. A statistical Mann and Whitney test was used to evaluate the differences between pair-wise groups. For comparison between time-point into each vehicle groups, a Friedman test was used. […]
# [3] = tested on: patients after ocular surgery; test: Clinical Phase II, post-surgery intraocular inflammation: safety; conditions: for AEs considered by the Investigator to be related to Dexamethasone / AEs considered by the Investigator to be related to XG-102: blinded assessment
# Procedure: The criteria for evaluation of safety were: • a. Visual acuity by ETDRS method • b. Slit Lamp examination findings • c. The results of the ophthalmic fundus examination • d. Intra Ocular Pressure (IOP) measurements • e. Vital signs (blood pressure (BP), pulse rate (PR) and rhythm) • f. The results of the hematology and chemistry laboratory tests • g. The occurrence of Adverse Events • h. Presence (or not) of XG-102 in plasma 1 hour after the administration of study treatment in a subset of patients (approximately 30).
# An AE is therefore any unfavorable and unintended sign, symptom or disease temporally associated with the use of a medicinal product, whether or not considered related to the medicinal product.
# A Suspected Unexpected Serious Adverse Reaction (SUSAR) was defined as a suspected adverse reaction related to the treatment that is both unexpected (i.e. not consistent with the expected outcomes of the study treatment being administered) and serious.
# Patients were analyzed as treated, i.e. according to the treatment which they received. The safety set was the primary analysis set for the safety analysis.
# The present study was a double-blind study. All patients who were randomized and for whom the sub-conjunctival injection was started are included in the safety analysis by dose group. […] If the study treatment eye drops were stopped prematurely (i.e. before day 21), the patients concerned continued follow-up until day 28, in accordance with the study protocol.
# Investigators assessed (in a blinded manner) the relationship of each reported AE to any of the study treatments. An event was considered to be related to study treatment if the Investigator ticked either ‘possible’ or ‘probable’ as the reply to this question.
smiles,measurement,setting,value
CC(C)C[C@@H](NC(=O)[C@@H](Cc1ccccc1)NC(=O)[C@H]1CCCN1C(=O)[C@@H](CCC(N)=O)NC(=O)[C@H](NC(=O)[C@H]1CCCN1C(=O)[C@@H](CCCNC(=N)N)NC(=O)[C@@H](CO)NC(=O)[C@@H](CCC(N)=O)NC(=O)[C@H](N)CC(=O)O)C(C)C)C(=O)N[C@H](CC(N)=O)C(=O)N[C@H](CC(C)C)C(=O)N[C@@H](C(=O)N[C@@H](C(=O)N1CCC[C@@H]1C(=O)N[C@H](CCCNC(=N)N)C(=O)N[C@H](CCCCN)C(=O)N1CCC[C@@H]1C(=O)N[C@H](CCCNC(=N)N)C(=O)N1CCC[C@@H]1C(=O)N1CCC[C@@H]1C(=O)N[C@H](CCCNC(=N)N)C(=O)N[C@H](CCCNC(=N)N)C(=O)N[C@H](CCCNC(=N)N)C(=O)N[C@H](CCC(N)=O)C(=O)N[C@H](CCCNC(=N)N)C(=O)N[C@H](CCCNC(=N)N)C(=O)N[C@H](CCCCN)C(=O)N[C@H](CCCCN)C(=O)N[C@H](CCCNC(=N)N)C(=O)NCC(=O)O)[C@H](C)O)[C@H](C)O [XG-102],XG-102 concentration in plasma,[1],< 10 ng/mL
same,protection of ONL thickness,[2]; high dose XG-102,No protection was observed with high dose XG-102
same,recovery of the a-wave (% of baseline),[2]; low dose 1.5 μg/eye,48.3%
same,loss of the mean ONL thickness,[2]; low dose XG-102,40%
same,loss of the mean ONL thickness,[2]; mid dose XG-102,40%
same,AEs possibly or probably related to study treatment as assessed by the Investigator,[3]; 90 μg XG-102 (N = 47),18 Total # events
same,AEs considered by the Investigator to be related to Dexamethasone,[3]; 90 μg XG-102 group,2 (2.6%) Total # events (%)
same,AEs considered by the Investigator to be related to XG-102,[3]; 90 μg XG-102 group,16 (20.5%) Total # events (%)
same,AEs possibly or probably related to study treatment as assessed by the Investigator,[3]; 900 μg XG-102 (N = 48),13 Total # events
same,AEs considered by the Investigator to be related to Dexamethasone,[3]; 900 μg XG-102 group,1 (1.5%) Total # events (%)
same,AEs considered by the Investigator to be related to XG-102,[3]; 900 μg XG-102 group,12 (17.4%) Total # events (%)
same,AEs possibly or probably related to study medication,[3]; XG-102 90 μg,18 events
same,"Intraocular pressure increased, patients",[3]; XG-102 90 μg,23%
same,events in SOC EYE DISORDERS,[3]; XG-102 90 μg,49 events
same,events resulting in premature withdrawal of study treatment eye drops,[3]; XG-102 90 μg,11 events
same,patients with SAEs,[3]; XG-102 90 μg,4 patients
same,patients with events in SOC EYE DISORDERS,[3]; XG-102 90 μg,26 (55%)
same,percentage of patients with an AE within 24 hours after administration,[3]; XG-102 90 μg,34%
same,total number of AEs reported,[3]; XG-102 90 μg,78
same,Reported AEs by severity: Mild,[3]; XG-102 90 μg dose group,55 (70.5%) number of events (% of reported events)
same,Reported AEs by severity: Moderate,[3]; XG-102 90 μg dose group,6 (7.7%) number of events (% of reported events)
same,Reported AEs by severity: Severe,[3]; XG-102 90 μg dose group,17 (21.7%) number of events (% of reported events)
same,AEs possibly or probably related to study medication,[3]; XG-102 900 μg,13 events
same,"Intraocular pressure increased, patients",[3]; XG-102 900 μg,10%
same,events in SOC EYE DISORDERS,[3]; XG-102 900 μg,43 events
same,events resulting in premature withdrawal of study treatment eye drops,[3]; XG-102 900 μg,8 events
same,patients with SAEs,[3]; XG-102 900 μg,3 patients
same,patients with events in SOC EYE DISORDERS,[3]; XG-102 900 μg,24 (50%)
same,percentage of patients with an AE within 24 hours after administration,[3]; XG-102 900 μg,27%
same,total number of AEs reported,[3]; XG-102 900 μg,69
same,Reported AEs by severity: Mild,[3]; XG-102 900 μg dose group,49 (71.0%) number of events (% of reported events)
same,Reported AEs by severity: Moderate,[3]; XG-102 900 μg dose group,12 (17.4%) number of events (% of reported events)
same,Reported AEs by severity: Severe,[3]; XG-102 900 μg dose group,8 (11.6%) number of events (% of reported events)
same,Eye pain,[3]; XG-102 900 μg vs dexamethasone (p=0.029),Eye pain was more frequently reported for patients allocated to the XG-102 900 μg group
